Measured values: ChEMBL document CHEMBL1149621, “The synthesis of 18beta-glycyrrhetinic acid derivatives which have increased antiproliferative and apoptotic effects in leukemia cells” (2007)
The source made the active and inactive calls. No cut-off for these calls is given here.

Tests used:
HL-60 [1] = assay: Antiproliferative activity against human HL60 cells after 72 hrs; type: functional; settings: HL-60, 72 h
HL-60 [2] = assay: Induction of apoptosis in human HL60 cells at 80 uM after 6 hrs by fluorescence microscopy; type: functional
HL-60 [3] = assay: Induction of apoptosis in human HL60 cells assessed as accumulation of cells in subG1 phase at 80 uM after 6 hrs by FACS method; type: functional
HL-60 [4] = assay: Induction of apoptosis in human HL60 cells assessed as DNA fragmentation at 80 uM after 6 hrs; type: functional, cell-based

SMILES | GI50 (HL-60 [1]) [µM] | Activity (HL-60 [2]) [%] | Activity (HL-60 [3]) [%] | Activity (HL-60 [4])
CC1(C)C(=O)CC[C@]2(C)C3C(=O)C=C4[C@@H]5C[C@](C)(C(=O)O)CC[C@]5(C)CC[C@@]4(C)[C@]3(C)CC[C@@H]12 (stereo partly drawn) | 59.6 | 28.5 | – | –
CCCO/N=C1\CC[C@]2(C)C3C(=O)C=C4[C@@H]5C[C@](C)(C(=O)O)CC[C@]5(C)CC[C@@]4(C)[C@]3(C)CC[C@H]2C1(C)C (stereo partly drawn) | 20.6 | 87.3 | 80.3 | Active
CO/N=C1\CC[C@]2(C)C3C(=O)C=C4[C@@H]5C[C@](C)(C(=O)O)CC[C@]5(C)CC[C@@]4(C)[C@]3(C)CC[C@H]2C1(C)C (stereo partly drawn) | 36.1 | 60.2 | 70.9 | Active
CCCO/N=C1\CC[C@]2(C)C3C(=O)C=C4[C@@H]5C[C@](C)(C(=O)OC)CC[C@]5(C)CC[C@@]4(C)[C@]3(C)CC[C@H]2C1(C)C (stereo partly drawn) | 19 | 4.9 | – | –
CCO/N=C1\CC[C@]2(C)C3C(=O)C=C4[C@@H]5C[C@](C)(C(=O)O)CC[C@]5(C)CC[C@@]4(C)[C@]3(C)CC[C@H]2C1(C)C (stereo partly drawn) | 24.4 | 59.7 | 68.7 | Active
CC1(C)[C@@H](O)CC[C@]2(C)C3C(=O)C=C4[C@@H]5C[C@](C)(C(=O)O)CC[C@]5(C)CC[C@@]4(C)[C@]3(C)CC[C@@H]12 (stereo partly drawn) | 63.2 | 24.9 | 12.7 | inactive
CC(=O)O/N=C1\CC[C@]2(C)C3C(=O)C=C4[C@@H]5C[C@](C)(C(=O)O)CC[C@]5(C)CC[C@@]4(C)[C@]3(C)CC[C@H]2C1(C)C (stereo partly drawn) | 58.8 | 19.1 | – | –
CCO/N=C1\CC[C@]2(C)C3C(=O)C=C4[C@@H]5C[C@](C)(C(=O)OC)CC[C@]5(C)CC[C@@]4(C)[C@]3(C)CC[C@H]2C1(C)C (stereo partly drawn) | 19.1 | 8.6 | – | –
CCC(=O)O/N=C1\CC[C@]2(C)C3C(=O)C=C4[C@@H]5C[C@](C)(C(=O)O)CC[C@]5(C)CC[C@@]4(C)[C@]3(C)CC[C@H]2C1(C)C (stereo partly drawn) | 57.7 | 27.7 | – | –
CC1(C)/C(=N/O)CC[C@]2(C)C3C(=O)C=C4[C@@H]5C[C@](C)(C(=O)O)CC[C@]5(C)CC[C@@]4(C)[C@]3(C)CC[C@@H]12 (stereo partly drawn) | 63 | 24.5 | – | –
